# Values joined by “and” are separate entries in the source; they are usually repeats but may differ in a detail not shown here. Equal values may be shown once.
# Tests used:
# [1] = 7-day Maximum Tolerated Dose 1 (MTD1) rat study; assay type: in vivo, Wistar Han rats; design: AUC(0 - t) / Cmax / Urea / Glucose / Triglycerides: unit not given here; conditions: for Triglycerides / Urea / Glucose: Male
# From the text: (§1) See the summary of the study design in Supplementary Table 31. Nine-week-old Wistar (Crl:WI (Han)) rats were obtained from Charles River Laboratories (Domaine des Oncins, Saint-Germain-Nuelles, France). […] Animals were examined daily for any altered clinical signs, body weights, and food consumption. Blood samples were taken at different timepoints after the test item administration, and toxicokinetic exposure assessed under the defined experimental conditions and analyzed using Phoenix (version 6.4 and 1.4) (Supplementary Table 32). Measurements included hematology and clinical chemistry measurements. Animals were euthanized and necropsied at the end of the dosing period. At necropsy, major organ systems and tissues were collected and weighed and then examined for gross lesions as well as for microscopic changes.
# [2] = test system: mouse primary hepatocytes; test: Hepatocyte stability, mouse; assay type: in vitro ADME
# [3] = test system: Caco-2; test: Caco-2 permeability assay; conditions: pH 7.4/7.4
# [4] = 7-day PK toxicity rat study; assay type: in vivo, Wistar Han rats; design: AUC(0 - t) / Cmax / Concentration (PK study): unit not given here
# From the text: as §1
smiles,measurement,setting,value
C[C@@H](CNC(=O)[C@H](O)C(C)(C)CO)NC(=O)c1cc(F)c(F)cc1F [MMV693183],Triglycerides,[1]; 60 mg/kg,0.56 and 0.92 and 0.69
same,Urea,[1]; 60 mg/kg,6.5 and 7.4 and 9.1
same,Glucose,"[1]; 60 mg/kg, 7 days, per rat",7.28 and 9.9 and 8.53
same,Glucose,[1]; 200 mg/kg,7.64 and 9.24 and 10.45
same,Triglycerides,[1]; 200 mg/kg,0.58 and 0.71 and 0.55
same,Urea,[1]; 200 mg/kg,8.3 and 8.1 and 9.4
same,Glucose,[1]; 600 mg/kg,5.54 and 8.3 and 8.46
same,Triglycerides,[1]; 600 mg/kg,0.57 and 0.62 and 0.56
same,Urea,[1]; 600 mg/kg,9.5 and 9.2 and 8.3
same,increase in liver weight,"[1]; males, 600 mg/kg/day",up to 71%
same,hematological and clinical chemistry parameters,"[1]; rat, in vivo",no significant treatment-related deviations
same,Compound Remaining (% of 0 min),[2]; 0 min,100%
same,Compound Remaining (% of 0 min),[2]; 5 min,114%
same,Compound Remaining (% of 0 min),[2]; 10 min,109%
same,Compound Remaining (% of 0 min),[2]; 20 min,103%
same,Compound Remaining (% of 0 min),[2]; 40 min,101%
same,Compound Remaining (% of 0 min),[2]; 60 min,105%
same,Average Papp A to B,[3],2.9e-06 s⁻¹
same,Average Papp B to A,[3],1.35e-05 s⁻¹
same,Efflux ratio,[3],4.7
same,mortality,"[4]; 60, 200 mg/kg/day, 7 days",no mortality occurred
same,Liver weight,"[4]; PK 60 mg/kg/day, Females",6.5972 g
same,Liver weight,"[4]; PK 60 mg/kg/day, Males",11.4290 g
same,Liver weight,"[4]; PK 200 mg/kg/day, Females",8.4371 g
same,Liver weight,"[4]; PK 200 mg/kg/day, Males",13.5439 g
same,Concentration (PK study),"[4]; PK study, Females 60 mg/kg/day, Day 4, 8 hr",867 and 896 and 826
same,Concentration (PK study),"[4]; PK study, Females 60 mg/kg/day, Day 5, 8 hr",531 and 997 and 950
same,Concentration (PK study),"[4]; PK study, Females 60 mg/kg/day, Day 6, 8 hr",642 and 776
same,Concentration (PK study),"[4]; PK study, Females 60 mg/kg/day, Day 7, 8 hr",936 and 1060 and 1050
same,Concentration (PK study),"[4]; PK study, Females 200 mg/kg/day, Day 1, 0.5 hr",81400 and 80500 and 68400
same,Concentration (PK study),"[4]; PK study, Females 200 mg/kg/day, Day 1, 1 hr",65500 and 65700 and 66800
same,Concentration (PK study),"[4]; PK study, Females 200 mg/kg/day, Day 1, 4 hr",12200 and 17800 and 10500
same,Concentration (PK study),"[4]; PK study, Females 200 mg/kg/day, Day 3, 0.5 hr",70400 and 75700 and 61100
same,Concentration (PK study),"[4]; PK study, Females 200 mg/kg/day, Day 3, 2 hr",18000 and 10900 and 12000
same,Concentration (PK study),"[4]; PK study, Females 200 mg/kg/day, Day 3, 8 hr",2420 and 2030 and 1670
same,Concentration (PK study),"[4]; PK study, Females 200 mg/kg/day, Day 4, 0.5 hr",47900 and 69400 and 35700
same,Concentration (PK study),"[4]; PK study, Females 200 mg/kg/day, Day 4, 8 hr",1340 and 729 and 914
same,Concentration (PK study),"[4]; PK study, Females 200 mg/kg/day, Day 4, 24 hr",LLoQ
same,Concentration (PK study),"[4]; PK study, Females 200 mg/kg/day, Day 5, 2 hr",3640 and 1960 and 3540
same,Concentration (PK study),"[4]; PK study, Females 200 mg/kg/day, Day 5, 24 hr",LLoQ
same,Concentration (PK study),"[4]; PK study, Females 200 mg/kg/day, Day 6, 0.5 hr",17200 and 19900 and 13800
same,Concentration (PK study),"[4]; PK study, Females 200 mg/kg/day, Day 6, 1 hr",5360 and 3620 and 4830
same,Concentration (PK study),"[4]; PK study, Females 200 mg/kg/day, Day 6, 2 hr",2060 and 2560
same,Concentration (PK study),"[4]; PK study, Females 200 mg/kg/day, Day 6, 4 hr",1070 and 1300 and 1240
same,Concentration (PK study),"[4]; PK study, Females 200 mg/kg/day, Day 6, 24 hr",LLoQ
same,Concentration (PK study),"[4]; PK study, Females 200 mg/kg/day, Day 7, 0.5 hr",16600 and 15200 and 10900
same,Concentration (PK study),"[4]; PK study, Females 200 mg/kg/day, Day 7, 1 hr",7160 and 4910 and 4560
same,Concentration (PK study),"[4]; PK study, Females 200 mg/kg/day, Day 7, 8 hr",446 and 524 and 294
same,Concentration (PK study),"[4]; PK study, Females 200 mg/kg/day, Day 7, 24 hr",LLoQ
same,Concentration (PK study),"[4]; PK study, Males 60 mg/kg/day, Day 1, 1 hr",20300 and 24600 and 25700
same,Concentration (PK study),"[4]; PK study, Males 60 mg/kg/day, Day 1, 2 hr",8920
same,Concentration (PK study),"[4]; PK study, Males 60 mg/kg/day, Day 1, 8 hr",595 and 761 and 549
same,Concentration (PK study),"[4]; PK study, Males 60 mg/kg/day, Day 3, 0.5 hr",8790 and 10300 and 7140
same,Concentration (PK study),"[4]; PK study, Males 60 mg/kg/day, Day 3, 1 hr",5740 and 6580 and 9120
same,Concentration (PK study),"[4]; PK study, Males 60 mg/kg/day, Day 4, 1 hr",4970 and 6410 and 5310
same,Concentration (PK study),"[4]; PK study, Males 60 mg/kg/day, Day 4, 2 hr",2150
same,Concentration (PK study),"[4]; PK study, Males 60 mg/kg/day, Day 5, 0.5 hr",4090 and 5780 and 6430
same,Concentration (PK study),"[4]; PK study, Males 60 mg/kg/day, Day 5, 1 hr",2810 and 3810 and 4490
same,Concentration (PK study),"[4]; PK study, Males 60 mg/kg/day, Day 5, 2 hr",833
same,Concentration (PK study),"[4]; PK study, Males 60 mg/kg/day, Day 6, 0.5 hr",3190 and 3990 and 2700
same,Concentration (PK study),"[4]; PK study, Males 60 mg/kg/day, Day 6, 1 hr",2440 and 2560 and 2960
same,Concentration (PK study),"[4]; PK study, Males 60 mg/kg/day, Day 6, 2 hr",793
same,Concentration (PK study),"[4]; PK study, Males 60 mg/kg/day, Day 7, 0.5 hr",4630 and 4120 and 3030
same,Concentration (PK study),"[4]; PK study, Males 60 mg/kg/day, Day 7, 1 hr",2360 and 3070 and 4490
same,Concentration (PK study),"[4]; PK study, Males 60 mg/kg/day, Day 7, 2 hr",852
same,Liver weight,"[4]; PK study, females, 60 mg/kg/day, individual animals",7.845 g and 6.555 g and 7.19 g and 6.045 g and 7.197 g and 6.726 g and 6.103 g and 6.171 g and 6.163 g and 5.278 g and 7.062 g and 7.17 g and 6.744 g and 6.318 g and 6.169 g and 6.575 g and 6.983 g and 6.456 g
same,Liver weight,"[4]; PK study, females, 200 mg/kg/day, individual animals",8.221 g and 8.493 g and 7.964 g and 8.859 g and 9.347 g and 7.27 g and 8.193 g and 8.745 g and 8.636 g and 8.349 g and 8.711 g and 8.055 g and 7.728 g and 8.238 g and 8.802 g and 8.338 g and 9.482 g
same,Liver weight,"[4]; PK study, males, 60 mg/kg/day, individual animals",11.319 g and 10.601 g and 11.37 g and 12.154 g and 11.768 g and 12.437 g and 11.213 g and 11.313 g and 11.86 g and 10.827 g and 10.923 g and 10.921 g and 10.76 g and 12.104 g and 11.841 g and 10.238 g and 12.991 g and 11.082 g
same,Liver weight,"[4]; PK study, males, 200 mg/kg/day, individual animals",14.027 g and 16.129 g and 13.438 g and 12.573 g and 14.48 g and 14.447 g and 11.375 g and 14.317 g and 13.757 g and 13.38 g and 14.677 g and 13.312 g and 12.998 g and 12.7 g and 12.791 g and 13.174 g and 13.587 g and 12.628 g
same,decrease of exposure at later timepoints,[4]; day 3 to day 7 vs day 1,up to 11 fold
same,"Increased mitoses, hepatocellular: animals affected","[4]; in order: females 60, 200 mg/kg/day",1
same,"Hypertrophy, centrilobular: animals affected","[4]; in order: males 60, 200 (n=18), females 60 (n=18), 200 (n=17) mg/kg/day",18 and 14 and 17
same,Extramedullary hematopoiesis: animals affected,"[4]; in order: males 60, 200, females 60, 200 mg/kg/day",10 and 14 and 9 and 13
same,"Necrosis, hepatocellular: animals affected","[4]; in order: males 60, females 60, 200 mg/kg/day",1

# Reference: PMC9021288 (Nature Communications, 2022)
